According to US9170257B2 (priority 2012, dated 2015):
Read-outs that look alike come from different tables or passages of the source.

Test: Tissue distribution of curcumin and THC at necropsy 15 minutes post-infusion
Design: species or system Beagle dogs
Settings: both sexes, beagle, dog, in vivo, 10 mg/kg; for Kp at 8 h: 8 hr infusion
Method: The test article will be administered to 8 Beagle dogs by intravenous infusion over two hours (Part A) or eight hours (Part B) as shown in Table 6.
Multiple samples of tissue weighing approximately 1 gram were removed and snap frozen in the presence or absence of phosphoric acid (H3PO4). For all tissue samples, the levels of curcumin and THC were determined using a method developed by the Bioanalytical Department at Nucro-Technics. […] Values that were below the limit of quantification were assigned a value of 0. […] Tissue distribution data was analyzed using, unless stated, the data from 4 dogs and are presented as the mean±standard error (S.E.).

**Q.** Which Kp at 8 h (H3PO4 stabilized, read-out: Kp [tissue]/[plasma], Striatum) does the source give for `COc1cc(CCC(=O)CC(=O)CCc2ccc(O)c(OC)c2)ccc1O` [THC, tetrahydrocurcumin] here?
**A.** 0.03

**Q.** And the Kp at 8 h (H3PO4 stabilized, read-out: Kp [tissue]/[plasma], Urinary Bladder)?
**A.** 0.0106

**Q.** What about the concentration at 15 min (Average tissue concentration, Intestinal wall, Eight hour infusion, H3PO4 stabilized) of the same compound?
**A.** 0.09 ng/g

**Q.** And the concentration at 15 min (Average tissue concentration, Intestinal wall, Two hour infusion, H3PO4 stabilized)?
**A.** 2.11 ng/g

**Q.** What about the concentration at 15 min (Eight hour infusion, H3PO4 stabilized, read-out: Average tissue concentration, Bladder) of the same compound?
**A.** 1.11 ng/g

**Q.** What about the concentration at 15 min (Eight hour infusion, H3PO4 stabilized, read-out: Average tissue concentration, Brainstem) of the same compound?
**A.** 3.02 ng/g

**Q.** What about the concentration at 15 min (Eight hour infusion, H3PO4 stabilized, read-out: Average tissue concentration, Cortex) of the same compound?
**A.** 0.49 ng/g

**Q.** And the concentration at 15 min (Eight hour infusion, H3PO4 stabilized, read-out: Average tissue concentration, Heart)?
**A.** 0.03 ng/g

**Q.** What about the concentration at 15 min (Eight hour infusion, H3PO4 stabilized, read-out: Average tissue concentration, Hippocampus) of the same compound?
**A.** 1.12 ng/g

**Q.** What about the concentration at 15 min (Eight hour infusion, H3PO4 stabilized, read-out: Average tissue concentration, Kidney) of the same compound?
**A.** 2.03 ng/g

**Q.** What about the concentration at 15 min (Eight hour infusion, H3PO4 stabilized, read-out: Average tissue concentration, Liver) of the same compound?
**A.** 2.24 ng/g

**Q.** What about the concentration at 15 min (Eight hour infusion, H3PO4 stabilized, read-out: Average tissue concentration, Lung) of the same compound?
**A.** 6.36 ng/g

**Q.** And the concentration at 15 min (Eight hour infusion, H3PO4 stabilized, read-out: Average tissue concentration, Muscle)?
**A.** 2.42 ng/g

**Q.** And the concentration at 15 min (Eight hour infusion, H3PO4 stabilized, read-out: Average tissue concentration, Pancreas)?
**A.** 1.34 ng/g

**Q.** What about the concentration at 15 min (Eight hour infusion, H3PO4 stabilized, read-out: Average tissue concentration, Spleen) of the same compound?
**A.** 0.42 ng/g

**Q.** What about the concentration at 15 min (Eight hour infusion, H3PO4 stabilized, read-out: Average tissue concentration, Striatum) of the same compound?
**A.** 3.13 ng/g

**Q.** What about the Kp at 2 h (Kp [tissue]/[plasma], Intestinal Wall, 2 hr infusion, H3PO4 stabilized) of the same compound?
**A.** 0.0003

**Q.** What about the Kp at 8 h (Kp [tissue]/[plasma], Intestinal Wall, H3PO4 stabilized) of the same compound?
**A.** 0.002

**Q.** And the concentration at 15 min (Table 14, 2 hour infusion, +H3PO4, read-out: Tissue analysis, Brainstem)?
**A.** 10.6 ng/g

**Q.** What about the concentration at 15 min (Table 14, 2 hour infusion, +H3PO4, read-out: Tissue analysis, Cortex) of the same compound?
**A.** 3.08 ng/g

**Q.** And the concentration at 15 min (Table 14, 2 hour infusion, +H3PO4, read-out: Tissue analysis, Hippocampus)?
**A.** 6.46 ng/g

**Q.** What about the concentration at 15 min (Table 14, 2 hour infusion, +H3PO4, read-out: Tissue analysis, Liver) of the same compound?
**A.** 4.58 ng/g

**Q.** And the concentration at 15 min (Table 14, 2 hour infusion, +H3PO4, read-out: Tissue analysis, Lung)?
**A.** 9.37 ng/g

**Q.** What about the concentration at 15 min (Table 14, 2 hour infusion, +H3PO4, read-out: Tissue analysis, Pancreas) of the same compound?
**A.** 0.91 ng/g

**Q.** What about the concentration at 15 min (Table 14, 2 hour infusion, +H3PO4, read-out: Tissue analysis, Spleen) of the same compound?
**A.** 1.6 ng/g

**Q.** What about the concentration at 15 min (Table 14, 2 hour infusion, +H3PO4, read-out: Tissue analysis, Striatum) of the same compound?
**A.** 11.1 ng/g

**Q.** And the concentration at 15 min (Table 14, 2 hour infusion, −H3PO4, read-out: Tissue analysis, Brainstem)?
**A.** 2.33 ng/g

**Q.** What about the concentration at 15 min (Table 14, 2 hour infusion, −H3PO4, read-out: Tissue analysis, Cortex) of the same compound?
**A.** 0.67 ng/g

**Q.** What about the concentration at 15 min (Table 14, 2 hour infusion, −H3PO4, read-out: Tissue analysis, Hippocampus) of the same compound?
**A.** 0.75 ng/g

**Q.** What about the concentration at 15 min (Table 14, 2 hour infusion, −H3PO4, read-out: Tissue analysis, Liver) of the same compound?
**A.** 2.41 ng/g

**Q.** What about the concentration at 15 min (Table 14, 2 hour infusion, −H3PO4, read-out: Tissue analysis, Lung) of the same compound?
**A.** 17.7 ng/g

**Q.** And the concentration at 15 min (Table 14, 2 hour infusion, −H3PO4, read-out: Tissue analysis, Pancreas)?
**A.** 2.01 ng/g

**Q.** What about the concentration at 15 min (Table 14, 2 hour infusion, −H3PO4, read-out: Tissue analysis, Spleen) of the same compound?
**A.** 1.35 ng/g

**Q.** And the concentration at 15 min (Table 14, 2 hour infusion, −H3PO4, read-out: Tissue analysis, Striatum)?
**A.** 6.21 ng/g

**Q.** And the concentration at 15 min (Table 15, 2 hour infusion, +H3PO4, read-out: Tissue analysis, Brainstem)?
**A.** 3.02 ng/g

**Q.** What about the concentration at 15 min (Table 15, 2 hour infusion, +H3PO4, read-out: Tissue analysis, Cortex) of the same compound?
**A.** 0.49 ng/g

**Q.** What about the concentration at 15 min (Table 15, 2 hour infusion, +H3PO4, read-out: Tissue analysis, Hippocampus) of the same compound?
**A.** 1.12 ng/g

**Q.** And the concentration at 15 min post-infusion (Table 15, 2 hour infusion, +H3PO4, read-out: Tissue analysis, Liver)?
**A.** 2.24 ng/g

**Q.** And the concentration at 15 min (Table 15, 2 hour infusion, +H3PO4, read-out: Tissue analysis, Lung)?
**A.** 6.36 ng/g

**Q.** And the concentration at 15 min (Table 15, 2 hour infusion, +H3PO4, read-out: Tissue analysis, Pancreas)?
**A.** 1.34 ng/g

**Q.** What about the concentration at 15 min post-infusion (Table 15, 2 hour infusion, +H3PO4, read-out: Tissue analysis, Spleen) of the same compound?
**A.** 0.42 ng/g

**Q.** And the concentration at 15 min (Table 15, 2 hour infusion, +H3PO4, read-out: Tissue analysis, Striatum)?
**A.** 3.13 ng/g

**Q.** What about the concentration at 15 min (Table 15, 2 hour infusion, −H3PO4, read-out: Tissue analysis, Brainstem) of the same compound?
**A.** 0.83 ng/g

**Q.** And the concentration at 15 min (Table 15, 2 hour infusion, −H3PO4, read-out: Tissue analysis, Cortex)?
**A.** 0.12 ng/g

**Q.** And the concentration at 15 min (Table 15, 2 hour infusion, −H3PO4, read-out: Tissue analysis, Hippocampus)?
**A.** 0.01 ng/g

**Q.** And the concentration at 15 min post-infusion (Table 15, 2 hour infusion, −H3PO4, read-out: Tissue analysis, Liver)?
**A.** 2.63 ng/g

**Q.** And the concentration at 15 min (Table 15, 2 hour infusion, −H3PO4, read-out: Tissue analysis, Lung)?
**A.** 10.8 ng/g

**Q.** And the concentration at 15 min (Table 15, 2 hour infusion, −H3PO4, read-out: Tissue analysis, Pancreas)?
**A.** 0.33 ng/g

**Q.** And the concentration at 15 min post-infusion (Table 15, 2 hour infusion, −H3PO4, read-out: Tissue analysis, Spleen)?
**A.** 0.32 ng/g

**Q.** And the concentration at 15 min (Table 15, 2 hour infusion, −H3PO4, read-out: Tissue analysis, Striatum)?
**A.** 1.12 ng/g

**Q.** And the concentration at 15 min (Tissue level, Intestinal Wall, 2 hour infusion, No H3PO4)?
**A.** 0.73 ng/g

**Q.** What about the concentration at 15 min (Tissue level, Intestinal Wall, 2 hour infusion, Plus H3PO4) of the same compound?
**A.** 2.12 ng/g

**Q.** What about the concentration at 15 min (Tissue level, Intestinal Wall, 8 hour infusion, No H3PO4) of the same compound?
**A.** 0.31 ng/g

**Q.** And the concentration at 15 min (Tissue level, Intestinal Wall, 8 hour infusion, Plus H3PO4)?
**A.** 0.21 ng/g

**Q.** What about the concentration at 15 min (Two hour infusion, H3PO4 stabilized, read-out: Average tissue concentration, Bladder) of the same compound?
**A.** 2.25 ng/g

**Q.** What about the concentration at 15 min (Two hour infusion, H3PO4 stabilized, read-out: Average tissue concentration, Brainstem) of the same compound?
**A.** 10.6 ng/g

**Q.** And the concentration at 15 min (Two hour infusion, H3PO4 stabilized, read-out: Average tissue concentration, Cortex)?
**A.** 3.08 ng/g

**Q.** And the concentration at 15 min (Two hour infusion, H3PO4 stabilized, read-out: Average tissue concentration, Heart)?
**A.** 0.68 ng/g

**Q.** What about the concentration at 15 min (Two hour infusion, H3PO4 stabilized, read-out: Average tissue concentration, Hippocampus) of the same compound?
**A.** 6.46 ng/g

**Q.** What about the concentration at 15 min (Two hour infusion, H3PO4 stabilized, read-out: Average tissue concentration, Kidney) of the same compound?
**A.** 4.25 ng/g

**Q.** What about the concentration at 15 min (Two hour infusion, H3PO4 stabilized, read-out: Average tissue concentration, Liver) of the same compound?
**A.** 4.58 ng/g

**Q.** And the concentration at 15 min (Two hour infusion, H3PO4 stabilized, read-out: Average tissue concentration, Lung)?
**A.** 9.37 ng/g

**Q.** What about the concentration at 15 min (Two hour infusion, H3PO4 stabilized, read-out: Average tissue concentration, Muscle) of the same compound?
**A.** 4.19 ng/g

**Q.** And the concentration at 15 min (Two hour infusion, H3PO4 stabilized, read-out: Average tissue concentration, Pancreas)?
**A.** 0.91 ng/g

**Q.** And the concentration at 15 min (Two hour infusion, H3PO4 stabilized, read-out: Average tissue concentration, Spleen)?
**A.** 1.6 ng/g

**Q.** What about the concentration at 15 min (Two hour infusion, H3PO4 stabilized, read-out: Average tissue concentration, Striatum) of the same compound?
**A.** 11.1 ng/g
